{"source": "patent US6268395A", "about": "“Phorbol derivatives having antivirus activity” (Lead Chemical Co., Ltd., priority 1999, dated 2001)", "key": {"P-388 leukemia": {"test_system": "P-388 leukemia", "conditions": "P-388 leukemia in mice; cited from earlier work"}, "[1]": {"assay": "Cell growth / viability of MT-4 cells (cytotoxicity)", "assay_type": "cell-based", "conditions": "human, day 5, read-out: CC0 (concentration that reduces viability of MT-4 cells; minimum cytotoxic concentration)", "method": "(§1) In the experiments, MT-4 cells were used. The cells were incubated at 37° C. under 5% CO2 in RPMI-1640 medium (FCS, Flow laboratories, North Ryde, Australia) supplemented with 100 μg/mL of streptomycin (Meiji Seika, Tokyo, Japan), and 100 U/mL of penicillin G (Banyu Pharmaceutical, Tokyo, Japan).\n(§2) The inhibitory effect of test compounds on HIV-1-induced cytopathogenicity was measured by the method of Harada, Koyanagi & Yamamoto (1985). MT-4 cells were infected for 1 hour with HIV-1 (at TCID50 of 0.001/well) and non-adsorbed virus was removed by washing. Then, the cells were resuspended in RPMI-1640 medium at a concentration of 1.5×10^5 cells/mL. A 200 μL/well of the cell suspension was cultured for 5 days in days in a 96-well culture plate containing various concentrations (12 doses, maximum 1,000 μg/mL and minimum […]) of the test compounds. Control assays were performed in the absence of test compounds with HIV-1-infected and uninfected cultures. On day 5, the IC100 of the test compound required for completely preventing HIV-1-induced CPE(IC) was determined through an optical microscope and the cell growth was examined to give the CC0 that reduces the viability of MT-4 cells."}, "protein kinase C (PKC)": {"test_system": "protein kinase C (PKC)", "assay_type": "biochemical, mouse", "conditions": "for % Activity of PKC: relative to TPA positive control; for PKC activation, positive control: TPA, lipid and calcium chloride present; for activation of PKC (in words): concentration not given", "method": "After addition of 0.55 nM [γ-^32 P] ATP (50×10^3 cpm/nmol), the reaction mixture was mixed and allowed to be kept at 37° C. for 30 minutes. Then the reactions were terminated by the addition of 10 μl of ice-cold stop reagent. Aliquots of 35 μL were transferred to the center of peptide binding discs. After 10 minutes, the discs were washed two times with 75 mM orthophosphoric acid. The activity of ^32 P-labeled samples was counted in 10/mL of a scintillation fluid for 1 minute. […] Blank (in the absence of PKC) and control (in the absence of TPA or tested samples) were also carried out. One unit of PKC was defined as that amount of enzyme, which incorporated 1 nmol of phosphate from ATP into its substrate, peptide, per minute under the assay conditions, described above."}, "HIV-1": {"test_system": "HIV-1", "assay": "Inhibition of HIV-1-induced cytopathic effect (CPE) in MT-4 cells", "assay_type": "cell-based, HIV-1 (LAV-1) in human MT-4 cells", "conditions": "for IC100: Human immunodeficiency virus 1, MT4, 120 h; for r = CC0/IC100: 7200 min; for CPE inhibitory effect (in words): HIV-1; for anti-HIV-1 activity: at concentrations up to 500 μg/mL", "method": "as §1\nHIV-1 was obtained from culture supernatant of MOLT-4 cells that had been persistently infected with LAV-1.\nj) Assay of cytopathic effect(CPE) of HIV-1 in MT-4 cells\nas §2\nA variety of phorbol esters and related compounds were tested for their ability to inhibit the replication and infectivity of HIV-1 in MT-4 cells, a human CD4-positive cell line continually infected with HTLV-1, and the results are presented in Table 3."}, "HIV": {"test_system": "HIV", "conditions": "cited from earlier work"}, "[2]": {"conditions": "10 ng/mL (standard concentration)"}, "[3]": {"conditions": "MT-4 cells, 5 days, NE: Not effective, read-out: Anti-HIV-1 IC100 (complete prevention of HIV-1-induced CPE)"}}, "note": "“And” between values parts separate entries of the source, which are not always exact repeats. Equal values may be shown once. “Also recorded” adds a separate entry of the source. Read-outs that look alike come from different tables or passages of the source.", "data": [{"molecule": "C/C=C(\\C)C(=O)O[C@@H]1[C@@H](C)[C@@]2(O)[C@@H](C=C(CO)C[C@]3(O)C(=O)C(C)=C[C@@H]23)[C@@H]2C(C)(C)[C@]12OC(=O)CCCCCCCCC", "note": "[12-O-tigloylphorbol-13-decanoate]", "values": [{"measurement": "antileukemic activity", "setting": "P-388 leukemia", "value": "demonstrated antileukemic activity"}]}, {"molecule": "CC(=O)OCC1=C[C@H]2[C@@H]3C(C)(C)[C@]3(OC(C)=O)[C@H](OC(C)=O)[C@@H](C)[C@]2(OC(C)=O)[C@@H]2C=C(C)C(=O)[C@@]2(OC(C)=O)C1", "note": "[Compound 17, Phorbol-4,9,12,13,20-pentaacetate]", "values": [{"measurement": "MCC at 120 h", "setting": "[1]", "value": 250, "unit": "µg/mL"}, {"measurement": "PKC activation (in words)", "setting": "protein kinase C (PKC); [2]", "value": "did not activate PKC"}, {"measurement": "% Activity of PKC", "setting": "protein kinase C (PKC); 10 ng/mL", "value": 0, "unit": "%"}, {"measurement": "IC100", "setting": "HIV-1; [3]", "value": 125, "unit": "µg/mL"}, {"measurement": "r = CC0/IC100", "setting": "HIV-1; MT-4 cells", "value": 2.00}]}, {"molecule": "CC(=O)O[C@@]12C[C@@H](C)[C@@]3(O)[C@@H](C=C(CO)C[C@]4(O)C(=O)C(C)=C[C@@H]34)[C@@H]1C2(C)C", "note": "[12-Deoxyphorbol-13-acetate]", "values": [{"measurement": "anti-HIV activity", "setting": "HIV", "value": "having an anti-HIV activity"}]}, {"molecule": "CCCCCCCCCCCCCC(=O)O[C@@H]1[C@@H](C)[C@@]2(O)[C@@H](C=C(CO)C[C@]3(O)C(=O)C(C)=C[C@@H]23)[C@@H]2C(C)(C)[C@]12OC(C)=O", "note": "[Compound 8, reference compound]", "values": [{"measurement": "MCC at 120 h", "setting": "[1]", "value": 31.3, "unit": "µg/mL"}, {"measurement": "% Activity of PKC", "setting": "protein kinase C (PKC); 10 ng/mL", "value": "96% and ~100%"}, {"measurement": "% Activity of PKC", "setting": "protein kinase C (PKC); 2.7 μg/mL", "value": "98% and ~100%"}, {"measurement": "PKC activation, positive control", "setting": "protein kinase C (PKC)", "value": 100, "unit": "%"}, {"measurement": "PKC activation, positive control", "setting": "protein kinase C (PKC); represents 100%", "value": 8400, "unit": "nmol/mg/min"}, {"measurement": "IC100", "setting": "HIV-1; [3]", "value": 0.00048, "unit": "µg/mL"}, {"measurement": "IC100", "setting": "HIV-1; MT-4 cells, read-out: IC100 (complete inhibition of CPE)", "value": 0.00048, "unit": "µg/mL"}, {"measurement": "CPE inhibitory effect (in words)", "setting": "HIV-1; MT-4 cells", "value": "equipotent"}, {"measurement": "r = CC0/IC100", "setting": "HIV-1; MT-4 cells", "value": 65200}]}, {"molecule": "CC(=O)OCC12CC3(O)C(=O)C1(C)C1C3C3(O)C(C)C(OC(C)=O)C4(OC(C)=O)C(C3C12)C4(C)C", "note": "(centres unmarked) [Compound 24, Lumiphorbol-12,13,20-triacetate]", "values": [{"measurement": "MCC at 120 h", "setting": "[1]", "value": 500, "unit": "µg/mL"}, {"measurement": "PKC activation (in words)", "setting": "protein kinase C (PKC); [2]", "value": "no activation was observed"}, {"measurement": "% Activity of PKC", "setting": "protein kinase C (PKC); 10 ng/mL", "value": 0, "unit": "%"}, {"measurement": "% Activity of PKC", "setting": "protein kinase C (PKC); 2.7 μg/mL", "value": 93, "unit": "%"}, {"measurement": "PKC activation (in words)", "setting": "protein kinase C (PKC); high concentrations", "value": "enhanced activation of PKC"}, {"measurement": "CPE inhibitory effect (in words)", "setting": "HIV-1; MT-4 cells", "value": "showed no effect"}, {"measurement": "anti-HIV-1 activity", "setting": "HIV-1", "value": "did not show anti-HIV-1 activity"}]}, {"molecule": "CCCCCCCCCCCCCC(=O)O[C@@H]1[C@@H](C)[C@@]2(O)[C@@H](C=C(COC(C)=O)C[C@]3(O)C(=O)C(C)=C[C@@H]23)[C@@H]2C(C)(C)[C@]12OC(C)=O", "note": "[Compound 14, 12-O-Tetradecanoylphorbol-13,20-diacetate]", "values": [{"measurement": "MCC at 120 h", "setting": "[1]", "value": 62.5, "unit": "µg/mL"}, {"measurement": "% Activity of PKC", "setting": "protein kinase C (PKC); 10 ng/mL", "value": 0, "unit": "%"}, {"measurement": "% Activity of PKC", "setting": "protein kinase C (PKC); 2.7 μg/mL", "value": 30, "unit": "%"}, {"measurement": "activation of PKC (in words)", "setting": "protein kinase C (PKC)", "value": "dramatically decreased"}, {"measurement": "IC100", "setting": "HIV-1; [3]", "value": 15.6, "unit": "µg/mL"}, {"measurement": "CPE inhibitory effect (in words)", "setting": "HIV-1; MT-4 cells", "value": "dramatically decreased"}, {"measurement": "r = CC0/IC100", "setting": "HIV-1; MT-4 cells", "value": 4.01}]}, {"molecule": "CC1=C[C@H]2[C@@]3(O)[C@H](C)[C@@H](O)[C@]4(O)[C@H]([C@@H]3C=C(CO)C[C@]2(O)C1=O)C4(C)C", "note": "[Compound 9, Phorbol]", "values": [{"measurement": "MCC at 120 h", "setting": "[1]", "value": 1000, "unit": "µg/mL"}, {"measurement": "% Activity of PKC", "setting": "protein kinase C (PKC); 10 ng/mL", "value": 8, "unit": "%"}, {"measurement": "% Activity of PKC", "setting": "protein kinase C (PKC); 2.7 μg/mL", "value": 39, "unit": "%"}, {"measurement": "activation of PKC (in words)", "setting": "protein kinase C (PKC)", "value": "weak activators of PKC"}, {"measurement": "CPE inhibitory effect (in words)", "setting": "HIV-1; MT-4 cells", "value": "did not show CPE inhibitory effect; also recorded: showed no effect"}, {"measurement": "anti-HIV-1 activity", "setting": "HIV-1", "value": "did not show anti-HIV-1 activity"}]}, {"molecule": "CC1=C[C@H]2[C@@]3(O)[C@H](C)[C@@H](OC(=O)c4ccccc4)[C@]4(OC(=O)c5ccccc5)[C@H]([C@@H]3C=C(COC(=O)c3ccccc3)C[C@]2(O)C1=O)C4(C)C", "note": "[Compound 12, Phorbol-12,13,20-tribenzoate]", "values": [{"measurement": "MCC at 120 h", "setting": "[1]", "value": 31.3, "unit": "µg/mL"}, {"measurement": "% Activity of PKC", "setting": "protein kinase C (PKC); 2.7 μg/mL", "value": 100, "unit": "%"}, {"measurement": "activation of PKC (in words)", "setting": "protein kinase C (PKC)", "value": "enhanced the activation of PKC"}, {"measurement": "CPE inhibitory effect (in words)", "setting": "HIV-1; MT-4 cells", "value": "showed no effect"}, {"measurement": "anti-HIV-1 activity", "setting": "HIV-1", "value": "did not show anti-HIV-1 activity"}]}, {"molecule": "CCCCC/C=C\\C/C=C\\CCCCCCCC(=O)OCC1=C[C@H]2[C@@H]3C(C)(C)[C@]3(OC(C)=O)[C@H](OC(C)=O)[C@@H](C)[C@]2(O)[C@@H]2C=C(C)C(=O)[C@@]2(O)C1", "note": "[Compound 13, Phorbol-12,13-diacetate-20-linoleate]", "values": [{"measurement": "MCC at 120 h", "setting": "[1]", "value": 62.5, "unit": "µg/mL"}, {"measurement": "% Activity of PKC", "setting": "protein kinase C (PKC); 10 ng/mL", "value": 0, "unit": "%"}, {"measurement": "% Activity of PKC", "setting": "protein kinase C (PKC); 2.7 μg/mL", "value": 44, "unit": "%"}, {"measurement": "activation of PKC (in words)", "setting": "protein kinase C (PKC)", "value": "without an increase in the activity of PKC"}, {"measurement": "IC100", "setting": "HIV-1; [3]", "value": 7.81, "unit": "µg/mL"}, {"measurement": "Anti-HIV-1 IC100 (complete prevention of HIV-1-induced CPE)", "setting": "HIV-1; MT-4 cells, 5 days, NE: Not effective", "value": 7.8, "unit": "µg/mL"}, {"measurement": "CPE inhibitory effect (in words)", "setting": "HIV-1; MT-4 cells", "value": "Enhancement of the anti-HIV activity"}, {"measurement": "r = CC0/IC100", "setting": "HIV-1; MT-4 cells", "value": 8.00}]}, {"molecule": "C/C=C(\\C)C(=O)O[C@@]12[C@H](OC(C)=O)[C@@H](C)[C@@]3(O)[C@@H](C=C(CO)C[C@]4(O)C(=O)C(C)=C[C@@H]34)[C@@H]1C2(C)C", "note": "[Compound 3, 12-O-Acetylphorbol-13-tigliate]", "values": [{"measurement": "MCC at 120 h", "setting": "[1]", "value": 500, "unit": "µg/mL"}, {"measurement": "% Activity of PKC", "setting": "protein kinase C (PKC); 10 ng/mL", "value": 16, "unit": "%"}, {"measurement": "% Activity of PKC", "setting": "protein kinase C (PKC); 2.7 μg/mL", "value": 30, "unit": "%"}, {"measurement": "activation of PKC (in words)", "setting": "protein kinase C (PKC)", "value": "weak activation of PKC"}, {"measurement": "IC100", "setting": "HIV-1; [3]", "value": 125, "unit": "µg/mL"}, {"measurement": "CPE inhibitory effect (in words)", "setting": "HIV-1; MT-4 cells", "value": "weak inhibitory effects against CPE"}, {"measurement": "r = CC0/IC100", "setting": "HIV-1; MT-4 cells", "value": 4.00}]}]}
